Assay results from patent US20100222360A1, “Treatment of Malignant Peripheral Nerve Sheath Tumors” (priority 2008, published 2010).

Test system: MPNST cell line, YST-1
Assay: Proliferation of the MPNST cell line YST-1
Format: cell-based

SMILES: O=C1c2ccccc2-c2n[nH]c3cccc1c23 [SP600125]
- effect on the suppression of cell proliferation effected by Imatinib (SP600125 in combination with Imatinib, YST-1 cells): reinforces the suppression of cell proliferation
- suppression of proliferation of the MPNST cell line YST-1 (single agent, concentration-dependent manner): suppresses the proliferation
